Values after ≈ are worked out from the molar mass of the structure shown. Square brackets hold non-standard residues; d marks the D form. Ends that are not written are not given here. Peptide text beside a SMILES is read from it.
Key:
S. aureus ATCC 29213 = experiment: MIC, broth dilution; assay type: cell-based, Staphylococcus aureus; details: Table 5; STIP3 variants, highest concentration 100 μg/mL
Summary of the method: (§1)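 Peptides of 95% purity tested as 2-fold dilution series against bacteria diluted to OD 6×10^−4 in cation-adjusted Mueller Hinton broth. Standing cultures incubated overnight at 37° C; MIC is the lowest concentration with no visible growth.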

[1] = tested on: S. aureus ATCC 33592 (MRSA SCCmec type III); experiment: MIC, broth dilution; assay type: cell-based, Staphylococcus aureus; details: Table 5; STIP3 variants, highest concentration 100 μg/mL
Summary of the method: as §1

[2] = tested on: S. aureus ATCC BAA-1683 (MRSA SCCmec type IV); experiment: MIC, broth dilution; assay type: cell-based, Staphylococcus aureus; details: Table 5; STIP3 variants, highest concentration 100 μg/mL
Summary of the method: as §1

[3] = tested on: S. aureus ATCC BAA-2094 (MRSA SCCmec type V); experiment: MIC, broth dilution; assay type: cell-based, Staphylococcus aureus; details: Table 5; STIP3 variants, highest concentration 100 μg/mL
Summary of the method: as §1

[4] = tested on: S. aureus ATCC BAA-2313 (MRSA SCCmec type XI); experiment: MIC, broth dilution; assay type: cell-based, Staphylococcus aureus; details: Table 5; STIP3 variants, highest concentration 100 μg/mL
Summary of the method: as §1

[5] = tested on: S. aureus ATCC BAA-41 (MRSA SCCmec type II); experiment: MIC, broth dilution; assay type: cell-based, Staphylococcus aureus; details: Table 5; STIP3 variants, highest concentration 100 μg/mL
Summary of the method: as §1

[6] = tested on: S. aureus ATCC BAA-42 (MRSA SCCmec type VI); experiment: MIC, broth dilution; assay type: cell-based, Staphylococcus aureus; details: Table 5; STIP3 variants, highest concentration 100 μg/mL
Summary of the method: as §1

[7] = tested on: S. aureus ATCC BAA-44 (MRSA SCCmec type I); experiment: MIC, broth dilution; assay type: cell-based, Staphylococcus aureus; details: Table 5; STIP3 variants, highest concentration 100 μg/mL
Summary of the method: as §1

[8] = tested on: S. aureus / MRSA (ATCC MP-2 panel); assay type: cell-based, Staphylococcus aureus
Protocol: In order to begin to characterize STIP3-1 and potential sites amenable to modification, an alanine scanning experiment was performed. A total of 16 peptides with single alanine substitutions were assessed to inform on the importance of individual residues to antimicrobial activity. […] Next a series of thirty STIP3-1 variants were designed, guided by the aforementioned alanine scan and a previous report that the central α-helical core of the S. aureus δ-toxin could be converted into AMP through the inclusion of additional lysine residues^39. The collection included ten members with single substitutions relative to STIP3-1 and others that incorporated a number of changes that were designed to increase overall and local cationic charge as well as hydrophobic character (Table 5). Each of the STIPs was screened, including STIP3-1 to STIP-31, for antibiotic activity against a methicillin-sensitive S. aureus test organism and a panel of 7 MRSA strains defined by distinct SCCmec genotypes (FIG. 2; ATCC MP-2).
Determination of minimum inhibitory concentrations. The MICs were measured for bioactive peptides identified from the initial screen. For bacterial studies, cation-adjusted Mueller Hinton (MH) broth was used as the growth medium whereas YPD was used for C. albicans. Bacterial cultures were diluted to a OD value of 6×10^−4 in MH broth and a 180 μl volume was mixed with 20 μl of peptide arrayed as 2-fold dilution series in a 96-well plate. For the positive control, 20 μl of sterile water was used. Plates were incubated as standing cultures overnight at 37° C. The lowest peptide concentration that resulted no observed microbial growth after an overnight treatment was defined as the MIC.

[9] = tested on: Mannheimia haemolytica ATCC 33393; experiment: MIC, broth dilution; assay type: cell-based; details: Table 11; highest concentration 25 μg/mL
Summary of the method: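 Read-out is the lowest peptide concentration showing no growth after an overnight standing culture at 37 °C. Two-fold serial dilutions of 95%-pure peptide were tested against M. haemolytica ATCC 33393 at OD 6×10^−4 in cation-adjusted MH broth.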

C. albicans MYA-2876 = experiment: MIC, YPD broth; assay type: cell-based, Candida albicans; details: Table 8
Summary of the method: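 Yeast cells were diluted in YPD broth, and 180 μl aliquots were mixed with 20 μl of peptide from 2-fold serial dilutions in flat-bottom 96-well microtitre plates. Wells receiving 20 μl sterile water served as controls. After standing incubation overnight at 37° C, the MIC was taken as the lowest peptide concentration with no visible microbial growth.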

C. albicans Y537 = experiment: MIC, YPD broth; assay type: cell-based, Candida albicans; details: Table 8
[10] = tested on: Candida duobushaemulonii AR 391; experiment: MIC, YPD broth, CDC and FDA AR Candida isolate panel; assay type: cell-based; details: Table 9 below the line: only 200 or 100 μg/mL tested; values reported as 100 are ≤100 μg/mL
Summary of the method: (§2)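 Peptide purity was 95%. Doubling dilutions were tested against yeast set at an optical density of […], with overnight standing incubation at 37° C and a sterile-water control.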

[11] = tested on: Candida duobushaemulonii AR 392; experiment: as above; assay type: cell-based; details: Table 9 below the line: only 200 or 100 μg/mL tested; values reported as 100 are ≤100 μg/mL
Summary of the method: as §2

[12] = tested on: Candida duobushaemulonii AR 394; experiment: as above; assay type: cell-based; details: Table 9 below the line: only 200 or 100 μg/mL tested; values reported as 100 are ≤100 μg/mL
Summary of the method: as §2

[13] = tested on: Candida haemulonii AR 393; experiment: as above; assay type: cell-based; details: Table 9 below the line: only 200 or 100 μg/mL tested; values reported as 100 are ≤100 μg/mL
Summary of the method: as §2

[14] = tested on: Candida haemulonii AR 395; experiment: as above; assay type: cell-based; details: Table 9 below the line: only 200 or 100 μg/mL tested; values reported as 100 are ≤100 μg/mL
Summary of the method: as §2

Candida krusei AR 397 = experiment: as above; assay type: cell-based; details: Table 9 below the line: only 200 or 100 μg/mL tested; values reported as 100 are ≤100 μg/mL
Summary of the method: as §2

[15] = tested on: Candida lusitaniae AR 398; experiment: as above; assay type: cell-based; details: Table 9 below the line: only 200 or 100 μg/mL tested; values reported as 100 are ≤100 μg/mL
Summary of the method: as §2

Kodamae ohmeri AR 396 = experiment: as above; assay type: cell-based; details: Table 9 below the line: only 200 or 100 μg/mL tested; values reported as 100 are ≤100 μg/mL
Summary of the method: as §2

[16] = tested on: Saccharomyces cerevisiae AR 399; experiment: as above; assay type: cell-based; details: Table 9 below the line: only 200 or 100 μg/mL tested; values reported as 100 are ≤100 μg/mL
Summary of the method: as §2

[17] = tested on: Saccharomyces cerevisiae AR 400; experiment: as above; assay type: cell-based; details: Table 9 below the line: only 200 or 100 μg/mL tested; values reported as 100 are ≤100 μg/mL
Summary of the method: as §2

[18] = Circular dichroism spectroscopy; assay type: physicochemical; details: CD, 50% (v/v) TFE
Text: The δ-toxins and the PSMs are characterized as α-helical peptides that form amyloid fibers^48. Although the propensity of individual peptides to form amyloids is correlated to their cytotoxicity^49, the amyloid form is not directly implicated in cell membrane disruption^50. […] CD spectroscopy was used to investigate the secondary structure of a subset of peptides within the collection (FIG. 4A, Table 5). The STIP variants adopted α-helical forms in 50% (v/v) trifluoroethanol (TFE), though unlike the full-length S. auricularis δ-toxin, they were unstructured in water. […] Specifically, peptides characterized by the greatest and least α-helical content in TFE had MICs above the highest tested threshold.
Circular dichroism spectroscopy. Peptides were dissolved in water at concentrations between 0.3 and 0.5 mg/mL. CD spectra were recorded on an Applied Photophysics Chirascan Plus CD spectrophotometer at room temperature in a 0.1 cm path-length quartz cuvette. Spectra were recorded from 180 to 260 nm.

TVKFLVKWILKWVAKFA [STIP3-25, TVKFLVKWILKWVAKFA]
MIC S. aureus ATCC 29213 (S. aureus ATCC 29213): > (no inhibition was observed at the highest concentration of peptide tested: 100 μg/mL for the STIP3 variants)
MIC S. aureus ATCC 33592 (III) [1]: > (no inhibition was observed at the highest concentration of peptide tested: 100 μg/mL for the STIP3 variants)
MIC S. aureus ATCC BAA 1683 (IV) [2]: > (no inhibition was observed at the highest concentration of peptide tested: 100 μg/mL for the STIP3 variants)
MIC S. aureus ATCC BAA 2094 (V) [3]: > (no inhibition was observed at the highest concentration of peptide tested: 100 μg/mL for the STIP3 variants)
MIC S. aureus ATCC BAA 2313 (XI) [4]: > (no inhibition was observed at the highest concentration of peptide tested: 100 μg/mL for the STIP3 variants)
MIC S. aureus ATCC BAA 41 (II) [5]: > (no inhibition was observed at the highest concentration of peptide tested: 100 μg/mL for the STIP3 variants)
MIC S. aureus ATCC BAA 42 (VI) [6]: > (no inhibition was observed at the highest concentration of peptide tested: 100 μg/mL for the STIP3 variants)
MIC S. aureus ATCC BAA 44 (I) [7]: > (no inhibition was observed at the highest concentration of peptide tested: 100 μg/mL for the STIP3 variants)
inhibition of S. aureus ([8]; MIC screen, in words): incapable of inhibiting S. aureus
MIC (μg/mL) M. haemolytica [9]: > (> symbol indicates that no inhibition was observed at the highest concentration of peptide tested: 25 μg/mL)
MIC C. albicans MYA-2876 (C. albicans MYA-2876): 25 µg/mL
MIC C. albicans Y537 (C. albicans Y537): 25 µg/mL
MIC (μg/mL) Candida duobushaemulonii AR 391 [10]: > (values below the line were determined using two concentrations of peptide 200 or 100 μg/mL)
MIC (μg/mL) Candida duobushaemulonii AR 392 [11]: > (values below the line were determined using two concentrations of peptide 200 or 100 μg/mL)
MIC (μg/mL) Candida duobushaemulonii AR 394 [12]: > (values below the line were determined using two concentrations of peptide 200 or 100 μg/mL)
MIC (μg/mL) Candida haemulonii AR 393 [13]: > (values below the line were determined using two concentrations of peptide 200 or 100 μg/mL)
MIC (μg/mL) Candida haemulonii AR 395 [14]: > (values below the line were determined using two concentrations of peptide 200 or 100 μg/mL)
MIC (μg/mL) Candida krusei AR 397 (Candida krusei AR 397): > (values below the line were determined using two concentrations of peptide 200 or 100 μg/mL)
MIC (μg/mL) Candida lusitaniae AR 398 [15]: ≤ 100 µg/mL
MIC (μg/mL) Kodamae ohmeri AR 396 (Kodamae ohmeri AR 396): > (values below the line were determined using two concentrations of peptide 200 or 100 μg/mL)
MIC (μg/mL) Saccharomyces cerevisiae AR 399 [16]: ≤ 100 µg/mL
MIC (μg/mL) Saccharomyces cerevisiae AR 400 [17]: ≤ 100 µg/mL

CC[C@H](C)[C@H](NC(=O)[C@H](Cc1c[nH]c2ccccc12)NC(=O)[C@H](CCCCN)NC(=O)[C@@H](NC(=O)[C@H](CC(C)C)NC(=O)CNC(=O)CNC(=O)[C@@H](NC(=O)[C@@H](N)[C@@H](C)O)C(C)C)C(C)C)C(=O)N[C@@H](CC(C)C)C(=O)N[C@H](CCCCN)C(=O)N[C@H](C(=O)N[C@H](C(=O)N[C@@H](CCCCN)C(=O)N[C@@H](CCCCN)C(=O)N[C@@H](Cc1ccccc1)C(=O)N[C@@H](C)C(N)=O)C(C)C)[C@@H](C)O [STIP3-29-D1, TVGGLVKWILKTVKKFA-NH2] (H-TVGGLVKWIL[dK]TVKKFA-NH2; N-terminus assumed)
MIC S. aureus ATCC 29213 (S. aureus ATCC 29213): 12.5 µg/mL (≈ 6.62 µM)
MIC S. aureus ATCC 33592 (III) [1]: 25 µg/mL (≈ 13.2 µM)
fold increase of MIC relative to STIP3-29 [8]: 4 fold
MIC C. albicans MYA-2876 (C. albicans MYA-2876): 12.5 µg/mL (≈ 6.62 µM)
MIC C. albicans Y537 (C. albicans Y537): 25 µg/mL (≈ 13.2 µM)
α helicity (%) [18]: 51%

Reference: US12370235B2, “Synthetic, non-natural antimicrobial peptides inspired by Staphylococcus auricularis delta toxin” (University of Saskatchewan, priority 2021, dated 2025)
